IC50 data for one compound are collected here from ChEMBL document CHEMBL3886609, “Piperidylpyrimidine derivatives as modulators of protein kinase inhibitors and of vascular endothelial growth factor receptor 2” (2016).

The target of the assay is Vascular endothelial growth factor receptor 2 (Homo sapiens, UniProt P35968). The experiment in a line: VEGFR2 Kinase Assay: Biochemical KDR kinase assays were performed in 96 well microtiter plates that were coated overnight with 75 ug/well of poly-Glu-Tyr (4:1) in 10 mM Phosphate Buffered Saline (PBS), pH 7.4. The coated plates were washed with 2 mls per well PBS+0.05% Tween-20 (PBS-T), blocked by incubation with PBS containing 1% BSA, then washed with 2 mls per well PBS-T prior to starting the reaction. Reactions were carried out in 100 uL reaction volumes containing 2.7 uM ATP in kinase buffer (50 mM Hepes buffer pH 7.4, 20 mM MgCl2, 0.1 mM MnCl2 and 0.2 mM Na3VO4). Test compounds were reconstituted in 100% DMSO and added to the reaction to give a final DMSO concentration of 5%. Reactions were initiated by the addition 20 ul per well of kinase buffer containing 200-300 ng purified cytoplasmic domain KDR protein (BPS Bioscience, San Diego, Calif.). Following a 15 minute incubation at 30° C., the reactions were washed 2 mls per well PBS-T. 100 ul of a monoclonal anti-phosphotyrosine antibody-peroxidase conjugate diluted 1:10,000 in PBS-T was added to the wells for 30 minutes. Following a 2 mls per well wash with PBS-Tween-20, 100 ul of 0-Phenylenediamine Dihydrochloride in phosphate-citrate buffer, containing urea hydrogen peroxide, was added to the wells for 7-10 minutes as a colorimetric substrate for the peroxidase. […].
Vascular endothelial growth factor receptor 2, sequence (P35968 whole entry): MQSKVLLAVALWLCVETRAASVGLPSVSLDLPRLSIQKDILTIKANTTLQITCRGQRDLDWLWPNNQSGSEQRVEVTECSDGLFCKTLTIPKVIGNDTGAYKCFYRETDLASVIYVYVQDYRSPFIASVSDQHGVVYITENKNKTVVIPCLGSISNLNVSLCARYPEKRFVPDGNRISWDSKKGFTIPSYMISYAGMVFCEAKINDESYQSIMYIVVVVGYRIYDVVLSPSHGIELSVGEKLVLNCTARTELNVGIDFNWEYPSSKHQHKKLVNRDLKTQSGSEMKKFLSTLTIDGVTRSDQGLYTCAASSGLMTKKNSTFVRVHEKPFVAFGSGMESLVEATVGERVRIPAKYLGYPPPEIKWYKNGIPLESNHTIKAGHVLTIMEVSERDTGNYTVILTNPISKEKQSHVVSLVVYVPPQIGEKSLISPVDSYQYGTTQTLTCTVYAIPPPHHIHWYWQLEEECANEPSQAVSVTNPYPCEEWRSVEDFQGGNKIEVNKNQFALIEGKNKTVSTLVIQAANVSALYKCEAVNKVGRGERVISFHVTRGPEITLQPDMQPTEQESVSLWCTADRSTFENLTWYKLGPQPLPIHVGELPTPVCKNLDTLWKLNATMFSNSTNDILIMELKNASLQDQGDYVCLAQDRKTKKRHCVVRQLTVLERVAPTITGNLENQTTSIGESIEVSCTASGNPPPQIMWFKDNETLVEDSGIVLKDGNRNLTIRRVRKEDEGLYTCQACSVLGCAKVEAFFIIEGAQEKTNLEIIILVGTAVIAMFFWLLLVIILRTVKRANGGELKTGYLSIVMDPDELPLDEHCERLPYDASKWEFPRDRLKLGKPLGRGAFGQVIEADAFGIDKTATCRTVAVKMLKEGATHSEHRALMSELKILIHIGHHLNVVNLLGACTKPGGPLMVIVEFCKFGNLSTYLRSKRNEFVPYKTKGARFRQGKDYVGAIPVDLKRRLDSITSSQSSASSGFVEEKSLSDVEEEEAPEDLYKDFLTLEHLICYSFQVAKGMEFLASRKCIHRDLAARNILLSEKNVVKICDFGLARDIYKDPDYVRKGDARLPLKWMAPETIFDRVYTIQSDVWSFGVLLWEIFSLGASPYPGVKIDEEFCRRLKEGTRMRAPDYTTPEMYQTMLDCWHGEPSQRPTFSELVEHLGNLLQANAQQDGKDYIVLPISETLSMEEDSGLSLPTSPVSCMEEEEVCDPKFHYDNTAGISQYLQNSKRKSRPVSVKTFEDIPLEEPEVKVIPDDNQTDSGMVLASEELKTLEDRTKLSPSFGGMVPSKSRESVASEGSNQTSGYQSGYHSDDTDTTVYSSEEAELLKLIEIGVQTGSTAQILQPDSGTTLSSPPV

With `O=C(c1cccnc1)N1CCc2nc(Nc3ccsc3)ncc2C1`, the IC50 amounted to 11 nM.

For orientation: IC50 means the concentration that inhibits the measured activity by half.
